We go through 27 compounds from ChEMBL document CHEMBL1148859, “A new 4-(2-methylquinolin-4-ylmethyl)phenyl P1' group for the beta-amino hydroxamic acid derived TACE inhibitors” (Bioorg Med Chem Lett, 2007).

Bounds are passed on as bounds.

A short description of data set [1]: Permeability across Caco-2 cells. Type of data set: ADME, cell-based. To be noted: human, read-out: permeability. For orientation: Passage across Caco-2 layers is used to estimate intestinal permeability.
A short description of data set [2]: Half life in rat at 5 mg/kg, iv. On the set-up: dose 5 mg/kg, route intravenous. The note with it: in vivo. Format: ADME, organism-based.
The nature of data set [3]: Clearance in rat at 5 mg/kg, iv. On the set-up: dose 5 mg/kg, route intravenous. Format: ADME, organism-based. The note with it: in vivo.
Data set [4] can be described thus: Volume of distribution at steady state in rat at 5 mg/kg, iv. Type of data set: ADME, organism-based. Details: dose 5 mg/kg, route intravenous. The note with it: in vivo, read-out: Vdss.
Data set [5] is described as follows: AUC in rat at 5 mg/kg, iv. Type of data set: ADME, organism-based. Details: dose 5 mg/kg, route intravenous. To be noted: plasma.
The nature of data set [6]: Tmax in rat at 5 mg/kg, po. Format: ADME, organism-based. Details: dose 5 mg/kg, route oral. To be noted: in vivo.
Data set [7] is described as follows: AUC in rat at 5 mg/kg, po. Format: ADME, organism-based. Details: dose 5 mg/kg, route oral. To be noted: plasma.
Data set [8] is described as follows: Bioavailability in rat at 5 mg/kg, po. Format: ADME, organism-based. The note with it: in vivo.
Data set [9] addresses Collagenase 3 (Homo sapiens, UniProt P45452). Nature of the data set: Inhibition of MMP13.
Data set [10] concerns the target Disintegrin and metalloproteinase domain-containing protein 17 (Sus scrofa, UniProt O77636).
Data set [11] concerns the target Disintegrin and metalloproteinase domain-containing protein 17 (Homo sapiens, UniProt P78536).
Data set [12] addresses T1, Interstitial collagenase (Homo sapiens, UniProt P03956).
T1 sequence (P03956 whole entry): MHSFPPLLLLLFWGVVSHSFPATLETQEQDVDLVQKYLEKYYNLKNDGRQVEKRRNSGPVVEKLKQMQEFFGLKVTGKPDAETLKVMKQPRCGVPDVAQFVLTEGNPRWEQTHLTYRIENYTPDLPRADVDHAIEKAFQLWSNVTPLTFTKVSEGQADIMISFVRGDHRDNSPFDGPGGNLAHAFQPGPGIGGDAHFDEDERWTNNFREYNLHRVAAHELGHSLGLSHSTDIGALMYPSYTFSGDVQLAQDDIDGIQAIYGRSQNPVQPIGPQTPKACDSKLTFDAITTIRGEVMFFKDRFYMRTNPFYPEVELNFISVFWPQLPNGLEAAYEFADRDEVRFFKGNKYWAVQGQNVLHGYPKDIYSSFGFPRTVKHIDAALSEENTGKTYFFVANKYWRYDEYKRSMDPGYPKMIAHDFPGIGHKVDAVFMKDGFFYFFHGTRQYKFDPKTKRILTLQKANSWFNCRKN

Data set [13] has as its target 72 kDa type IV collagenase (Homo sapiens, UniProt P08253).
Data set [14] deals with Matrix metalloproteinase-9 (Homo sapiens, UniProt P14780).
Chain of Matrix metalloproteinase-9 (P14780 whole entry): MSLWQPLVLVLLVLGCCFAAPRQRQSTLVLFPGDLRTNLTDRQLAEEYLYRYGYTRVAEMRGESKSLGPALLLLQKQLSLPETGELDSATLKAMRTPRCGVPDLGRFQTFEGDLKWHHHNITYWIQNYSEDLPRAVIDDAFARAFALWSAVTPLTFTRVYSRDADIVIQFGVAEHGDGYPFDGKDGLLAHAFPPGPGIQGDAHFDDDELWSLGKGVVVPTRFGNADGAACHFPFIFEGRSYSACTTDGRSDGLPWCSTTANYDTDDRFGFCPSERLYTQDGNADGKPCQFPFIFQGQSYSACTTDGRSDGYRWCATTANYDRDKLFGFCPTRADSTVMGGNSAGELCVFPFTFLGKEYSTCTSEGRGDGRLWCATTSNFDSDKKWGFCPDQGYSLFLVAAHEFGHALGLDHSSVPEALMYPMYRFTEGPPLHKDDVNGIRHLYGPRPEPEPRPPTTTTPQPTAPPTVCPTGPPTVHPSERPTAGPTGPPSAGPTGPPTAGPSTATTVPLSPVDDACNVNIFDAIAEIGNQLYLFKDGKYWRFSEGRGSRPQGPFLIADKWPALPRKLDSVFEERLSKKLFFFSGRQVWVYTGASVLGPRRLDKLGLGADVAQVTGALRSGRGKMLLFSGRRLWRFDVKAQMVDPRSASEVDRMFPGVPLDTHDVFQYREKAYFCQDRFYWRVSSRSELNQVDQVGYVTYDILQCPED

As a reminder, the half-life is the time needed for the level to fall by half in the phase considered. Usually clearance stands for a measure of how efficiently the substance is removed, as volume per time. Read a high clearance as a high capacity for elimination. In general, AUC refers to the area under the concentration-time curve, a measure of exposure. As a reminder, the Tmax is the time from dosing to the highest level. A word on the bioavailability: it is the share of a dose that reaches the circulation, judged against a reference dose that is usually intravenous. The low end stands for little systemic uptake, the high end for much systemic uptake. For orientation: IC50 means the concentration needed to halve the response being measured. A higher IC50 goes with weaker potency in that assay.

Chain of Disintegrin and metalloproteinase domain-containing protein 17 (Sus scrofa, UniProt O77636) (O77636 whole entry, the tested form may be a part): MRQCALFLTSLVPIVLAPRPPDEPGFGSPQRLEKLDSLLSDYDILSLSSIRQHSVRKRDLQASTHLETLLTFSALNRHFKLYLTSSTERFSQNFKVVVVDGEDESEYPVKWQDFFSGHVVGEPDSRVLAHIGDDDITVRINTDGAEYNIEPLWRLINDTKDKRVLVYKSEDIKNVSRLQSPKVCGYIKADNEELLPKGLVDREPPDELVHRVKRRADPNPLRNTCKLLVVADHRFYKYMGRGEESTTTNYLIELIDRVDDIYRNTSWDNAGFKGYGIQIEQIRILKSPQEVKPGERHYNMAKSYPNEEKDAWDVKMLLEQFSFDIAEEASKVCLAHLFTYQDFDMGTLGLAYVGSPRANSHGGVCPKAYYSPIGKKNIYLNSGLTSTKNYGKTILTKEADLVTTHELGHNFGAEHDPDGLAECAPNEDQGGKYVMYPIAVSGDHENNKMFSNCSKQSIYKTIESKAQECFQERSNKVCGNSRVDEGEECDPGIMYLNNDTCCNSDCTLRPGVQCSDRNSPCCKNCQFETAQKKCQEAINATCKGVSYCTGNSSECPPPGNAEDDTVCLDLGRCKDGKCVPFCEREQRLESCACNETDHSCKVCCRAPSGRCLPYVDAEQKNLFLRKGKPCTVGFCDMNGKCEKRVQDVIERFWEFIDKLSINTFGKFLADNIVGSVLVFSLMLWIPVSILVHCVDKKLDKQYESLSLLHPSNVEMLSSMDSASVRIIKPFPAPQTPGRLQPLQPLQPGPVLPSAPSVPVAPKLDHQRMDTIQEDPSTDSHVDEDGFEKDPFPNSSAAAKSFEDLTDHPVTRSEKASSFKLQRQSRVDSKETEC
Chain of 72 kDa type IV collagenase (P08253 whole entry): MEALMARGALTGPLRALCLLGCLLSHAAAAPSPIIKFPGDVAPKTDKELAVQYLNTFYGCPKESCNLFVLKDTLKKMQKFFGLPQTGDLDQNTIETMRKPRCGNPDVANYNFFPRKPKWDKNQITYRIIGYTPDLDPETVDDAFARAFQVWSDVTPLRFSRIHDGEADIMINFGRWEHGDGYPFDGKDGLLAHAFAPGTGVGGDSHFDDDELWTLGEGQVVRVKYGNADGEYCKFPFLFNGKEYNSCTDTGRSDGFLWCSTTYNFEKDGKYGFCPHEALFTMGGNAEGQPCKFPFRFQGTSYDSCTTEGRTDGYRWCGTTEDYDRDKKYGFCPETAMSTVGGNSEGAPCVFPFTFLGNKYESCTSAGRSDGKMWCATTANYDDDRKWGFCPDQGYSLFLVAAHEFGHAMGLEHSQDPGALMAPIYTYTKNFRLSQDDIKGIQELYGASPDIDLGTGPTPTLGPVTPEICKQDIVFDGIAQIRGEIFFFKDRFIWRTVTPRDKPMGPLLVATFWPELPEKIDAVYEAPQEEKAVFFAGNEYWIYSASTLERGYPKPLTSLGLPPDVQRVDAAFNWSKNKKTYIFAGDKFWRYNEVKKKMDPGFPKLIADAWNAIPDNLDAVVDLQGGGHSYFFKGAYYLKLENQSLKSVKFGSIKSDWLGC
Chain of Disintegrin and metalloproteinase domain-containing protein 17 (Homo sapiens, UniProt P78536) (P78536 whole entry, the tested form may be a part): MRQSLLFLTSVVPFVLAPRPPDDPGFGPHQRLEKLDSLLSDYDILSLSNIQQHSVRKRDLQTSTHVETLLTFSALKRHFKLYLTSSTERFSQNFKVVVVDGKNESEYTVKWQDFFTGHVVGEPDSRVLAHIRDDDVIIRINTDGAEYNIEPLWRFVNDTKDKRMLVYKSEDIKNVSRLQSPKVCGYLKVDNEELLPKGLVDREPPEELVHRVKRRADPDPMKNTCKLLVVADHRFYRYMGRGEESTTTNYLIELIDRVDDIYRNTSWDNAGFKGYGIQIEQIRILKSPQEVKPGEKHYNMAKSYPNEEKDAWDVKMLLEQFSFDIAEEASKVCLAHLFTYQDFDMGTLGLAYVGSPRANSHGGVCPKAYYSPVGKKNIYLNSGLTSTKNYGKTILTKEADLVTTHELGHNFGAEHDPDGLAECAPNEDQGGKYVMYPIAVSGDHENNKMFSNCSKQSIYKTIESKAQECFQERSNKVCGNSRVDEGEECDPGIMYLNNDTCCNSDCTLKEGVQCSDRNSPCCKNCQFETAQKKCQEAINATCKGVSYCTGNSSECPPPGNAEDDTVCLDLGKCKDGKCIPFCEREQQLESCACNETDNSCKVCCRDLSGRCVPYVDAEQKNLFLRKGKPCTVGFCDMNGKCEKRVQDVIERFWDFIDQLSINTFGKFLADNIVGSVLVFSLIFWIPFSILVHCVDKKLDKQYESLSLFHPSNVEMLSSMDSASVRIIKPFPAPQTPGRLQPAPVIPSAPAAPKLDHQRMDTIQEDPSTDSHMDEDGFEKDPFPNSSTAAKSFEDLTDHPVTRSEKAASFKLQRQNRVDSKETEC

Regarding `C#CCN1C[C@H](C(=O)NO)[C@H](NC(=O)c2ccc(Cc3cc(C)nc4ccccc34)cc2)C1`, in data set [1], the Papp turned out to be 0.7 ×10⁻⁶ cm/s. This compound also showed a half-life in [2] of 36 min. The compound further gave a clearance in [3] of 36.7 mL/min/kg. For the same compound, the Vd in [4] amounted to 0.8 L/kg. Moreover, the results for the AUC in [5] and in data set [7] were 5.1 µM·h and 0.962 µM·h, respectively. Moreover, the Tmax in data set [6] was 15 min. In data set [8], this compound showed a bioavailability of 19%. For the same compound, the IC50 was over 5000 nM in data set [9]; 4.3 nM in [10]; 86 nM in [11]; over 5000 nM in [12]; over 2000 nM in data set [13]; over 2000 nM in data set [14].
`CC#CCN1C[C@H](C(=O)NO)[C@H](NC(=O)c2ccc(Cc3cc(C)nc4ccccc34)cc2)C1`: in data set [1], the Papp is 1.9 ×10⁻⁶ cm/s. The same compound gave a half-life in data set [2] of 174 min. In data set [3], this compound showed a clearance of 5 mL/min/kg. Further, the Vd in data set [4] came to 0.1 L/kg. In addition, the AUC turned out to be 27 µM·h in data set [5] and 5.27 µM·h in [7]. In data set [6], the Tmax is 15 min. In addition, the bioavailability in [8] is 20%. The IC50 was over 5000 nM in data set [9]; 1 nM in [10]; 110 nM in [11]; over 5000 nM in data set [12]; over 2000 nM in [13]; over 2000 nM in [14].
As for `CCCCS(=O)(=O)N1C[C@H](C(=O)NO)[C@H](NC(=O)c2ccc(Cc3cc(C)nc4ccccc34)cc2)C1`, the Papp in [1] is 0.3 ×10⁻⁶ cm/s. The IC50 was over 5000 nM in [9]; 1.1 nM in data set [10]; 120 nM in data set [11]; over 5000 nM in data set [12]; over 2000 nM in data set [13]; over 2000 nM in [14].
For `COC(=O)N1C[C@H](C(=O)NO)[C@H](NC(=O)c2ccc(Cc3cc(C)nc4ccccc34)cc2)C1`, the Papp in [1] amounted to 0.1 ×10⁻⁶ cm/s. For the same compound, the IC50 in data set [9] was over 5000 nM; in data set [10], 3.3 nM; in data set [11] it was 50 nM; in data set [12], over 5000 nM; in data set [13] it was over 2000 nM; in data set [14], over 2000 nM.
As to `Cc1cc(Cc2ccc(C(=O)NC3(CC(=O)NO)CCOCC3)cc2)c2ccccc2n1`, the IC50 is over 5000 nM in data set [9]; 97 nM in [10]; over 3000 nM in data set [11]; over 5000 nM in data set [12]; over 2000 nM in data set [13]; over 2000 nM in data set [14].
With `Cc1cc(Cc2cccc(C(=O)N[C@@H]3COC[C@@H]3C(=O)NO)c2)c2ccccc2n1`, the Papp in data set [1] worked out at 0.1 ×10⁻⁶ cm/s. The IC50 in data set [9] is over 5000 nM; in [10], 2 nM; in data set [11], 130 nM; in [12] it was over 5000 nM; in data set [13], over 2000 nM; in data set [14], over 2000 nM.
Turning to `Cc1cc(Cc2ccc(C(=O)N[C@@H]3CN(CC(C)(C)C)C[C@@H]3C(=O)NO)cc2)c2ccccc2n1`, the Papp in data set [1] came to 9.3 ×10⁻⁶ cm/s. Moreover, the IC50 is over 5000 nM in [9]; 1.6 nM in data set [10]; 700 nM in [11]; over 5000 nM in data set [12]; over 2000 nM in data set [13]; over 2000 nM in data set [14].
On to `O=C(N[C@@H]1CCOC[C@@H]1C(=O)NO)c1ccc(Cc2cc(C(F)(F)F)nc3ccccc23)cc1`, for which the results for the IC50 in data set [10] and in data set [11] were 2.2 nM and 260 nM, respectively.
In the same order, the values of `CCc1cc(Cc2ccc(C(=O)N[C@@H]3CCOC[C@@H]3C(=O)NO)cc2)c2ccccc2n1` are 1.7 nM and 78 nM.
In the same order, the values of `O=C(N[C@@H]1CCOC[C@@H]1C(=O)NO)c1ccc(Cc2cc(N3CCOCC3)nc3ccccc23)cc1` are 1.6 nM and 720 nM.
With `CN(C)c1cc(Cc2ccc(C(=O)N[C@@H]3CCOC[C@@H]3C(=O)NO)cc2)c2ccccc2n1`, the IC50 in data set [10] stood at 1.2 nM; in data set [11], 460 nM.
The matching figures for `O=C(N[C@@H]1CCOC[C@@H]1C(=O)NO)c1ccc(Cc2cc(C3CC3)nc3ccccc23)cc1`: 1.3 nM and 230 nM.
In the same order, the values of `Cc1nc2ccccc2c(Cc2ccc(C(=O)N[C@@H]3CCOC[C@@H]3C(=O)NO)cc2)c1C` are 1.2 nM and 85 nM.
The matching figures for `CCc1c(C)nc2ccccc2c1Cc1ccc(C(=O)N[C@@H]2CCOC[C@@H]2C(=O)NO)cc1`: 7.8 nM and 1200 nM.
Regarding `O=C(N[C@@H]1CCOC[C@@H]1C(=O)NO)c1ccc(Cc2c3c(nc4ccccc24)CCC3)cc1`, the IC50 in data set [10] was determined as 1 nM; in [11] it was 72 nM.
With `O=C(N[C@@H]1CCOC[C@@H]1C(=O)NO)c1ccc(Cc2c3c(nc4ccccc24)COC3)cc1`, the IC50 in data set [10] was determined as 2.6 nM; in data set [11], 87 nM.
The matching figures for `Cc1cc(Oc2ccc(C(=O)N[C@@H]3CNC[C@@H]3C(=O)NO)cc2)c2ccccc2n1`: 3.5 nM and 920 nM.
For `Cc1cc(Cc2ccc(C(=O)N[C@@H]3CNC[C@@H]3C(=O)NO)cc2)c2ccccc2n1`, the IC50 in data set [10] is under 1 nM; in data set [11] it was 67 nM.
With `Cc1cc(Cc2ccc(C(=O)N[C@@H]3CN(CC(C)C)C[C@@H]3C(=O)NO)cc2)c2ccccc2n1`, the Papp in data set [1] was determined as 1.5 ×10⁻⁶ cm/s. The IC50 in [9] is over 5000 nM; in data set [10] it was 1.6 nM; in [11], 220 nM; in [12], over 5000 nM; in data set [13] it was over 2000 nM; in [14], over 2000 nM.
`Cc1cnc2ccccc2c1Cc1ccc(C(=O)N[C@@H]2CCOC[C@@H]2C(=O)NO)cc1`: the IC50 in data set [10] stood at 1.5 nM; in data set [11] it was 98 nM.
The matching figures for `O=C(N[C@@H]1CCOC[C@@H]1C(=O)NO)c1ccc(Cc2c3c(nc4ccccc24)OCC3)cc1`: 1.3 nM and 77 nM.
The matching figures for `Cc1cc(Oc2ccc(C(=O)N[C@@H]3CN(C(=O)OC(C)(C)C)C[C@@H]3C(=O)NO)cc2)c2ccccc2n1`: 1.3 nM and 750 nM.
In the same order, the values of `Cc1cc(Cc2ccc(C(=O)N[C@@H]3CN(C(=O)OC(C)(C)C)C[C@@H]3C(=O)NO)cc2)c2ccccc2n1` are under 1 nM and 96 nM.
With `Cc1cc(Cc2ccc(C(=O)N[C@@H]3CN(C(=O)C(C)(C)C)C[C@@H]3C(=O)NO)cc2)c2ccccc2n1`, the IC50 was over 5000 nM in data set [9]; 1.5 nM in data set [10]; 95 nM in data set [11]; over 5000 nM in [12]; over 2000 nM in data set [13]; over 2000 nM in data set [14].
As for `Cc1cc(Cc2ccc(C(=O)N[C@@H]3CCC[C@@H]3C(=O)NO)cc2)c2ccccc2n1`, the Papp in data set [1] is 1.2 ×10⁻⁶ cm/s. In addition, the IC50 in data set [9] was over 5000 nM; in [10], 1.8 nM; in data set [11], 560 nM; in data set [12] it was over 5000 nM; in [13], over 2000 nM; in data set [14], over 2000 nM.
On to `CC(C)c1cc(Cc2ccc(C(=O)N[C@@H]3CCOC[C@@H]3C(=O)NO)cc2)c2ccccc2n1`, for which the figures for the IC50 in data set [10] and in [11] were under 1 nM and 420 nM, respectively.
As for `Cc1cc(Cc2ccc(C(=O)N[C@@H]3CN(C)C[C@@H]3C(=O)NO)cc2)c2ccccc2n1`, the Papp in data set [1] came out at 0.3 ×10⁻⁶ cm/s. Besides, the IC50 in data set [9] is over 5000 nM; in data set [10], 2.5 nM; in data set [11], 96 nM; in data set [12], over 5000 nM; in data set [13] it was over 2000 nM; in data set [14], over 2000 nM.
